Experimental data reported in US20240327351A1, “AMIDE AND ETHER SUBSTITUTED N-(1H-INDOL-7-YL)BENZENESULFONAMIDES AND USES THEREOF” (TRIANA BIOMEDICINES, INC., priority 2021, published 2024).
pEC50, pIC50: −log10 of the molar value.

Columns and labels:
DCAF15/RBM39 = DCAF15/RBM39 (Homo sapiens, UniProt Q14498+Q66K64); assay: AlphaLISA compound-induced DCAF15-RBM39 ternary complex formation; assay type: binding; settings: His-tagged DCAF15 complex and biotin-carrying RBM39
Procedure: Example 6: Quantitative Evaluation of Compound-Induced Ternary Complex Formation Using Amplified Luminescent Proximity Homogeneous Assay
Compound-induced DCAF15-RBM39 ternary complex formation was monitored using AlphaLISA® assays (Perkin Elmer, Waltham, MA). Test compounds were first collected in a 384-well microplate (cat. #781280, Grenier Bio-One, Monroe, NC) as 2 mM stocks in 100% dimethyl sulfoxide (DMSO). These stocks were then serially diluted in DMSO by 3-fold into a new plate (cat. #781280, Grenier Bio-One, Monroe, NC) using a Mosquito HTS dispenser (mosquito@ HTS, SPT Labtech, Boston, MA). 0.2 ul of these diluted stocks were then dispensed into a 384-well Optiplate (cat. #6007290, Perkin Elmer, Waltham, MA) in duplicate wells, to assemble the final assay plate consisting of duplicated dose ranges. Separately, a protein mixture consisting of His-tagged DCAF15 complex and biotin-carrying RBM39, each at 408 nM (2.04×), was prepared in 50 mM HEPES, pH 7.5, 100 mM NaCl, 2 mM MgCl2, 0.1% BSA, 2 mM TCEP, 0.05% Tween-20 (dilution buffer). 9.8 ul of this protein mixture was then mixed with the compounds in the assay plate and incubated for one hour at room temperature. Reaction mixtures with no compounds added were included as negative controls, while a His-tagged and biotinylated GST protein was included to track general assay performance. Nickel Chelate AlphaLISA Acceptor beads (cat. #AL108M, Perkin Elmer, MA) and AlphaScreen Streptavidin Donor beads (cat. #6760002, Perkin Elmer, Waltham, MA) were prepared separately in the dilution buffer as 4× stocks (80 ug/ml). The beads were then added to the assay plate sequentially with incubation at room temperature for 1-2 hours after each addition. Signals were recorded using EnVision 2104 Multilabel Plate Reader (Perkin Elmer, Waltham, MA) and titration curves were generated in GraphPad Prism (7.00, GraphPad, La Jolla, CA).

DCAF15 = DCAF15 (Homo sapiens, UniProt Q66K64); assay: HTRF competition assay, binary interaction between compounds and DCAF15; assay type: binding; settings: competition with Alexa Fluor 647 tracer, His-tagged DCAF15 complex
Procedure: Example 7: Measurement of Binary Interaction Between Compounds And DCAF15 Using Homogeneous Time Resolved Fluorescence (HTRF)
DCAF15 interactions with test compounds were monitored using HTRF competition assays (Cisbio, Bedford, MA). Test compounds were first collected in a 384-well microplate (cat. #781280, Grenier Bio-One, Monroe, NC) as 10 mM stocks in 100% dimethyl sulfoxide (DMSO). A second stock plate (cat. #781280, Grenier Bio-One, Monroe, NC) was prepared through 3-fold serial dilution in DMSO of the afore-mentioned stocks using a Mosquito HTS dispenser (mosquito@ HTS, SPT Labtech, Boston, MA). 0.2 ul of these diluted stocks were then dispensed into a 384-well Optiplate (cat. #6007290, Perkin Elmer, Waltham, MA) in duplicate wells, to assemble the assay plate. The tracer molecule containing an Alexa Fluor 647 probe was prepared in 25 mM HEPES pH 7.5, 100 mM NaCl, 0.1 mg/ml BSA, 0.005% Tween 20, 0.5 mM TCEP (dilution buffer) to 612 nM (2.04×). Separately, His-tagged DCAF15 complex was prepared at 32 nM (4×) in the dilution buffer, and mAb Anti-6His-Eu cryptate Gold (cat. #61H12KLA, Cisbio, Bedford, MA) at 4× dilution in the detection buffer (cat. #61 DB9RDF, Cisbio, Bedford, MA). These two solutions were mixed and incubated for 15 min at room temperature. 9.8 ul of the tracer solution and 10 ul of the DCAF15/mAb Anti-6His-Eu cryptate Gold mixture were added sequentially to each well in the assay plate. Reaction mixtures with no DCAF15 added were included as positive controls. The final mixture was incubated for an hour at room temperature and spun down briefly before data collection at 615 nm and 666 nm using En Vision 2104 Multilabel Plate Reader (Perkin Elmer, Bedford, MA). Binding was estimated based on ratiometric analysis and titration curves were generated in GraphPad Prism (7.00, GraphPad, La Jolla, CA).

SMILES	pEC50 (DCAF15/RBM39)	pIC50 (DCAF15)
NC1CCC(Oc2ccc(S(=O)(=O)Nc3ccc(Cl)c4c(Cl)c[nH]c34)cc2)CC1 (centres unmarked) [Compound 3]	> 6.00	5.00 to 6.00
N[C@@H]1CCC[C@@H](Oc2cccc(S(=O)(=O)Nc3ccc(Cl)c4c(Cl)c[nH]c34)c2)C1 [Compound 6]	> 6.00	4.00 to 5.00
N[C@@H]1CCC[C@@H](Oc2ccc(S(=O)(=O)Nc3ccc(Cl)c4c(Cl)c[nH]c34)cc2)C1 [Compound 7]	> 6.00	5.00 to 6.00
O=C(N[C@@H]1CCC[C@@H](Oc2ccc(S(=O)(=O)Nc3ccc(Cl)c4c(Cl)c[nH]c34)cc2)C1)OCc1ccccc1 [Compound 13]	< 4.00	< 4.00
NC[C@H]1CC[C@H](Oc2ccc(S(=O)(=O)Nc3ccc(Cl)c4c(Cl)c[nH]c34)cc2)CC1 [Compound 15]	5.00 to 6.00	5.00 to 6.00
O=S(=O)(Nc1ccc(Cl)c2c(Cl)c[nH]c12)c1cccc(O[C@H]2CC[C@H](N3CCOCC3)CC2)c1 [Compound 16]	> 6.00	5.00 to 6.00
O=S(=O)(Nc1ccc(Cl)c2c(Cl)c[nH]c12)c1ccc(O[C@H]2CC[C@H](N3CCOCC3)CC2)cc1 [Compound 17]	> 6.00	4.00 to 5.00
O=S(=O)(Nc1ccc(Cl)c2c(Cl)c[nH]c12)c1cccc(O[C@H]2CC[C@H](OCc3ccccc3)CC2)c1 [Compound 18]	< 4.00	< 4.00
O=S(=O)(Nc1ccc(Cl)c2c(Cl)c[nH]c12)c1ccc(O[C@H]2CC[C@H](OCc3ccccc3)CC2)cc1 [Compound 19]	< 4.00	< 4.00
O=S(=O)(Nc1ccc(Cl)c2c(Cl)c[nH]c12)c1cccc(O[C@@H]2C[C@@H]3C[C@@H]3C2)c1 [Compound 20]	5.00 to 6.00	< 4.00
CC1(Oc2ccc(S(=O)(=O)Nc3ccc(Cl)c4c(Cl)c[nH]c34)cc2)CCNCC1 [Compound 22, N-(3,4-dichloro-1H-indol-7-yl)-4-((4-methylpiperidin-4-yl)oxy)benzenesulfonamide]	> 6.00	5.00 to 6.00
CC1(Oc2ccc(S(=O)(=O)Nc3ccc(Cl)c4c(Cl)c[nH]c34)cc2)CCN(CCO)CC1 [Compound 23, N-(3,4-dichloro-1H-indol-7-yl)-4-((1-(2-hydroxyethyl)-4-methylpiperidin-4-yl)oxy)benzenesulfonamide]	> 6.00	5.00 to 6.00
O=S(=O)(Nc1ccc(Cl)c2c(Cl)c[nH]c12)c1ccc(OC2CC3(CNC3)C2)cc1 [Compound 25, 4-((2-azaspiro[3.3]heptan-6-yl)oxy)-N-(3,4-dichloro-1H-indol-7-yl)benzenesulfonamide]	> 6.00	5.00 to 6.00
O=S(=O)(Nc1ccc(Cl)c2c(Cl)c[nH]c12)c1cccc(OC2CCC3(CC2)CNC3)c1 [Compound 26]	> 6.00	4.00 to 5.00
O=S(=O)(Nc1ccc(Cl)c2c(Cl)c[nH]c12)c1ccc(Oc2ccc(F)cc2)cc1 [Compound 36]	5.00 to 6.00	4.00 to 5.00
N#Cc1ccc(Oc2ccc(S(=O)(=O)Nc3ccc(Cl)c4c(Cl)c[nH]c34)cc2)cc1 [Compound 37]	5.00 to 6.00	< 4.00
CN1CC[C@@H](c2ccc(F)cc2)[C@H](COc2ccc(S(=O)(=O)Nc3ccc(Cl)c4c(Cl)c[nH]c34)cc2)C1 [Compound 42]	5.00 to 6.00	5.00 to 6.00
CCOc1cc(N2CCC[C@H](COc3cccc(S(=O)(=O)Nc4ccc(Cl)c5c(Cl)c[nH]c45)c3)C2)ncn1 [Compound 43]	5.00 to 6.00	< 4.00
CCOc1cc(N2CCC[C@H](COc3ccc(S(=O)(=O)Nc4ccc(Cl)c5c(Cl)c[nH]c45)cc3)C2)ncn1 [Compound 44]	5.00 to 6.00	< 4.00
O=S(=O)(Nc1ccc(Cl)c2c(Cl)c[nH]c12)c1ccc(OC[C@@H]2CCCNC2)cc1 [Compound 46]	5.00 to 6.00	4.00 to 5.00
O=S(=O)(Nc1ccc(Cl)c2c(Cl)c[nH]c12)c1ccc(OC[C@H]2[C@@H]3CNC[C@@H]32)cc1 [Compound 48]	> 6.00	4.00 to 5.00
O=S(=O)(Nc1ccc(Cl)c2c(Cl)c[nH]c12)c1cccc(OCc2cccc(OC(F)F)c2)c1 [Compound 53]	5.00 to 6.00	< 4.00
O=S(=O)(Nc1ccc(Cl)c2c(Cl)c[nH]c12)c1ccc(OCc2cccc(OC(F)F)c2)cc1 [Compound 54]	5.00 to 6.00	< 4.00
NS(=O)(=O)c1ccc(S(=O)(=O)Nc2cccc3c(Cl)c[nH]c23)cc1 [Indisulam, indisulam, reference compound]	> 6.00	–

The remaining lines, values ahead:

pEC50 (DCAF15/RBM39)	pIC50 (DCAF15)	SMILES
5.00 to 6.00	–	Nc1ccc(S(=O)(=O)Nc2cnc3c(Cl)cccc3n2)cc1 [CQS, cloroquinoxaline sulfonamide, reference compound]
> 6.00	5.00 to 6.00	N[C@H]1CC[C@H](Oc2ccc(S(=O)(=O)Nc3ccc(Cl)c4c(Cl)c[nH]c34)cc2)CC1 [Compound 5]
5.00 to 6.00	< 4.00	O=S(=O)(Nc1ccc(Cl)c2c(Cl)c[nH]c12)c1ccc(O[C@@H]2C[C@@H]3C[C@@H]3C2)cc1 [Compound 21]
> 6.00	5.00 to 6.00	CN1CC2(CC(Oc3ccc(S(=O)(=O)Nc4ccc(Cl)c5c(Cl)c[nH]c45)cc3)C2)C1 [Compound 24, N-(3,4-dichloro-1H-indol-7-yl)-4-((2-methyl-2-azaspiro[3.3]heptan-6-yl)oxy)benzenesulfonamide]
5.00 to 6.00	5.00 to 6.00	O=S(=O)(Nc1ccc(Cl)c2c(Cl)c[nH]c12)c1ccc(OC2CCC3(CC2)CNC3)cc1 [Compound 27]
5.00 to 6.00	4.00 to 5.00	O=S(=O)(Nc1ccc(Cl)c2c(Cl)c[nH]c12)c1cccc(OC2CCC3(CCNCC3)CC2)c1 [Compound 32]
5.00 to 6.00	< 4.00	O=S(=O)(Nc1ccc(Cl)c2c(Cl)c[nH]c12)c1ccc(Oc2ccccc2)c(Cl)c1 [Compound 34]
4.00 to 5.00	< 4.00	O=S(=O)(Nc1ccc(Cl)c2c(Cl)c[nH]c12)c1ccc(Oc2ccc(Br)cc2)cc1 [Compound 35]
> 6.00	5.00 to 6.00	O=S(=O)(Nc1ccc(Cl)c2c(Cl)c[nH]c12)c1ccc(OC(F)F)c(F)c1 [Compound 38]
> 6.00	< 4.00	O=S(=O)(Nc1ccc(Cl)c2c(Cl)c[nH]c12)c1ccc(OCC2COC2)cc1 [Compound 40]
> 6.00	5.00 to 6.00	CN1CC[C@@H](c2ccc(F)cc2)[C@H](COc2cccc(S(=O)(=O)Nc3ccc(Cl)c4c(Cl)c[nH]c34)c2)C1 [Compound 41]
> 6.00	4.00 to 5.00	O=S(=O)(Nc1ccc(Cl)c2c(Cl)c[nH]c12)c1cccc(OC[C@@H]2CCCNC2)c1 [Compound 45]
> 6.00	4.00 to 5.00	O=S(=O)(Nc1ccc(Cl)c2c(Cl)c[nH]c12)c1cccc(OC[C@H]2[C@@H]3CNC[C@@H]32)c1 [Compound 47]
5.00 to 6.00	< 4.00	O=C(OCc1ccccc1)N1C[C@@H]2[C@@H](COc3cccc(S(=O)(=O)Nc4ccc(Cl)c5c(Cl)c[nH]c45)c3)[C@@H]2C1 [Compound 49]
< 4.00	< 4.00	O=C(OCc1ccccc1)N1C[C@@H]2[C@@H](COc3ccc(S(=O)(=O)Nc4ccc(Cl)c5c(Cl)c[nH]c45)cc3)[C@@H]2C1 [Compound 50]
5.00 to 6.00	–	O=C(NS(=O)(=O)c1ccc(Br)s1)c1ccc(Cl)cc1Cl [Tasisulam, tasisulam, reference compound]
